Drawing on ChEMBL document CHEMBL1159179, “Glucuronide prodrugs of hydroxy compounds for antibody directed enzyme prodrug therapy (ADEPT) : A phenol nitrogen mustard carbamate” (Bioorg Med Chem Lett, 1997), this text covers half-life and IC50 for one compound.

Molecules are shown by their SMILES. A value given as a limit tells only on which side of the number the result lay.

A short description of data set [1]: Half life period was determined. It counts as ADME. The following applies: rat.
A further data set deals with LoVo. In words: Tested for the cytotoxic effect in LoVo cells, activity. The following applies: Homo sapiens. In kind it is functional, cell-based.

For the compound `CN(C(=O)Oc1ccc(N(CCCl)CCCl)cc1)c1cc([N+](=O)[O-])ccc1O[C@@H]1O[C@@H](C(=O)O)[C@@H](O)[C@H](O)[C@@H]1O`, the half-life (in general, the time in which the quantity being followed falls by half) in data set [1] was 44 min. The IC50 (as a rule, the midpoint of a concentration-inhibition curve) with LoVo is more than 830 µM.
